Source: patent US20040132706A1, “Composition comprising a catalyst for the dismutation of superoxide and use of the composition for preventing and treating hypotension” (priority 2003, published 2004)
Entries after “also recorded” stand apart in the source; their conditions may differ.

Legend:
[1] = tested on: O2− generated by hypoxanthine/xanthine oxidase (HX/XO); assay: Deactivation of catecholamines by hypoxanthine/xanthine oxidase superoxide generating system, HPLC detection; assay type: biochemical; conditions: HX 2 mM / XO 1 U/ml, n=6; for chemical detection of the catecholamines by HPLC after exposure to HX/XO: no SOD mimetic
Protocol: Catecholamine measurements. Catecholamines in test tube samples or plasma samples were identified and quantified by high pressure liquid chromatography with electrochemical detection (HPLC-EC). The system consists of a Varian model 2510 solvent delivery system and a model 9090 autosampler (Varian, Walnut Creek, Calif.) coupled to a C18 column and an ESA Coulochem II detector. Separations were performed isocratically using a filtered and degassed mobile phase consisting of 10% methanol, 0.1 M sodium phosphate, 0.2 mM sodium octyl sulfate and 0.1 mM EDTA, adjusted to pH 2.8 with phosphoric acid. The HPLC system is coupled to a PS-90 computer with which chromatograms were recorded and analyzed with Varian Star workstation software.
Hypoxanthine (HX;2 mM)/xanthine oxidase (XO; 1 U/ml) results in the generation of O2^− in the ratio of 2 molecules of O2^− to every one molecule of HX used.

[2] = tested on: anaesthetized rat; assay: Pressor effect of norepinephrine incubates on MAP in the anaesthetized rat; assay type: in vivo, Male Sprague Dawley rats; conditions: n=6
Protocol: (§1) Anaesthetized Rat Model. Male Sprague Dawley rats (250-300 g) were anaesthetized with inactin (100 mg/Kg intraperitoneally). The trachea was cannulated to facilitate respiration and body temperature was maintained at 37° C. by means of a heating pad. The left femoral vein was cannulated for administration of drugs. The left femoral artery was cannulated and connected to a pressure transducer to allow for the monitoring of blood pressure. Lipopolysaccharide from E. coli (LPS; 4 mg/Kg, serotype 0111:B4) was administered as a bolus intravenous injection at a volume of 0.3 ml. Control animals received saline at the same volume and by the same route. In experiments involving blood samples, such blood samples were withdrawn from the arterial cannula.
Male Sprague Dawley rats (250-300 g, 6 rats per group) were anaesthetized and prepared according to the methods of Example 1. 0.5 mg/Kg of norepinephrine was administered as an intravenous (i.v) bolus injection through the left femoral vein. Animals in a control group received saline at the same volume and by the same route. The left femoral artery was cannulated and connected to a pressure transducer to allow for the monitoring of blood pressure during the experiment. The change in the blood pressure of the animals was compared to the blood pressure of animals in the control group. The results of the tests can be found in FIG. 1. Norepinephrine raised the MAP of the rats by 34±3.7 mmHg (FIG. 1b; n=6). […] When SOD mimetic M40403 was included with HX/XO in the incubation mixture, the vasopressor actions of were protected as shown by its ability to restore MAP back to near control values (38±3.6 mmHg) (FIG. 1b; n=6).

[3] = tested on: anaesthetized rat; assay: LPS-induced hyporeactivity to exogenous norepinephrine in the anaesthetized rat; assay type: in vivo, Male Sprague Dawley rats
Protocol: as §1
Injection of E. coli lipopolysaccharide (LPS) to rats leads to the development of hyporeactivity to exogeneously administered norepinephrine which typically occurs in the first two hours. Male Sprague Dawley rats (250-300 g, number in group) were anaesthetized and prepared according to the methods of Example 1. Increasing dosages of norepinephrine (0.1, 0.5 and 1 mg/Kg) were given as intravenous bolus injections. Animals in a control group received saline at the same volume and by the same route. The left femoral artery was cannulated and connected to a pressure transducer to allow for the monitoring of blood pressure during the experiment. The change in the blood pressure of the animals was compared to the blood pressure of animals in the control group. […] Pressor responses to norepinephrine in rats not treated with LPS were unaffected by the SOD mimetic M40403 (FIG. 2; n=6).
Injection of E. coli lipopolysaccharide (LPS) to rats leads to the development of hyporeactivity to exogeneously administered norepinephrine which typically occurs in the first two hours. Male Sprague Dawley rats (250-300 g, number in group) were anaesthetised and prepared according to the methods of Example 1. Increasing dosages of norepinephrine (0.1, 0.5 and 1 mg/Kg) were given as intravenous bolus injections. Animals in a control group received saline at the same volume and by the same route. The left femoral artery was cannulated and connected to a pressure transducer to allow for the monitoring of blood pressure during the experiment. The change in the blood pressure of the animals was compared to the blood pressure of animals in the control group.

[4] = tested on: anaesthetized rat; assay: LPS-induced hypotension and mortality in the anaesthetized rat; assay type: in vivo, Male Sprague Dawley rats
Protocol: as §1
Intravenous injection of LPS (4 mg/Kg) in rats led to a profound fall in blood pressure associated with a high mortality rate (99±5% mortality at 9 hours, n=10, FIG. 3). Furthermore, the plasma levels of norepinephrine as well as the adrenochromes increased after LPS treatment (FIGS. 4a,b,c; n=10). Levels of the catecholamines and of the adrenochromes could not be evaluated at the 9 h timepoint (survival rate at this point was 1%, n=10).
(FIG. 3; n=10). Inhibition of hypotension by M40403 was associated with increased levels of catecholamines (FIGS. 4a and b) and concommittant decrease (FIG. 4c; n=10) in plasma levels of the adrenochromes, the reaction products of O2^− and these catecholamines. In addition, when the administration of M40403 was postponed until 5 hours post LPS in this model the severe hypotensive phase of this condition was reversed (FIG. 3; n=10).
When 15 mg/Kg of 5,10,15,20-tetrakis (2,4,6-trimethyl-3,5-disulfonatophenyl)-porphyrinato iron (III) (FeTMPS) was administered (i.v bolus injection 1 hour after LPS), the development of hypotension was prevented.

[5] = Plasma catecholamine and adrenochrome concentrations after LPS; assay type: in vivo, Male Sprague Dawley rats; conditions: M40403 0.25 mg/Kg/h given at 1 h post LPS 4 mg/Kg i.v.; n=10
Protocol: as §1, with “In experiments involving blood samples, such blood samples were withdrawn from the arterial cannula.” left out
Catecholamine measurements. Catecholamines in test tube samples or plasma samples were identified and quantified by high pressure liquid chromatography with electrochemical detection (HPLC-EC). […] The HPLC system is coupled to a PS-90 computer with which chromatograms were recorded and analyzed with Varian Star workstation software.
Adrenochrome measurements. The detection and quantification of the sum of the noradrenochrome and adrenochrome was carried out using an HPLC method utilising a Vydac C18 Pharmaceutical 4.6×250 mm column and with a 5% acetonitrile+95% SDS (10 mM) mobile phase (5 min elution), then 40% acetonitrile with 60% SDS plus 0.1% TFA (5 min elution) mobile phase, all eluted at […]. […]

Molecule: CNC[C@H](O)c1ccc(O)c(O)c1 [epinephrine]
- chemical detection of the catecholamines by HPLC after exposure to HX/XO [1]: significant decreases

Molecule: [Cl-].[Cl-].[Mn+2].c1cc2nc(c1)CN[C@@H]1CCCC[C@H]1NCCN[C@@H]1CCCC[C@H]1NC2 [M40403]
- reduction of chemical detection (HPLC) of norepinephrine and epinephrine after incubation with HX/XO ([1]; M40403 10^−6 M, incubation 5 min): prevented
- ability of norepinephrine to increase MAP after incubation with HX/XO ([2]; M40403 in the incubate, incubation 5 min, norepinephrine 0.5 mg/Kg bolus i.v.): preserved
- increase in MAP by norepinephrine incubated with HX/XO plus M40403 ([2]; norepinephrine 0.5 mg/Kg i.v. bolus, M40403 included in HX/XO incubation mixture): 38±3.6 mmHg
- pressor responses to norepinephrine two hours after LPS ([3]; M40403 0.25 mg/Kg, 15 min i.v. infusion 1 hour after LPS 4 mg/Kg, norepinephrine 0.1, 0.5 and 1 mg/Kg): restored
- hyporeactivity to norepinephrine after LPS ([3]; M40403 1 mg/Kg, LPS 4 mg/Kg, norepinephrine 0.1-1 mg/Kg, n=6): reversed
- reactivity (pressor responses) to norepinephrine in rats not treated with LPS ([3]; saline treated rats, M40403, n=6): unaffected; also recorded: not affected
- fall in MAP (severe hypotensive phase) after LPS ([4]; M40403 0.25 mg/Kg administered at 5 h post LPS 4 mg/Kg i.v., n=10): reverses
- survival by 9 h ([4]; M40403 0.25 mg/Kg/h i.v. infusion 1 hour post LPS 4 mg/Kg, n=10): 99±2%
- fall in MAP (development of hypotension) after LPS ([4]; M40403 0.25 mg/Kg/h i.v. infusion from 1 h post LPS 4 mg/Kg i.v., n=10): prevents
- plasma concentrations of adrenochromes versus LPS alone [5]: decrease; also recorded: significantly lower
- plasma concentrations of epinephrine and norepinephrine versus LPS alone [5]: increased; also recorded: significantly higher

Molecule: NC[C@H](O)c1ccc(O)c(O)c1 [norepinephrine, reference compound]
- chemical detection of the catecholamines by HPLC after exposure to HX/XO [1]: significant decreases
- increase in MAP by norepinephrine after incubation with HX/XO ([2]; norepinephrine 0.5 mg/Kg i.v. bolus, incubated with HX/XO): 17±2.5 mmHg
- increase in MAP by norepinephrine ([2]; norepinephrine 0.5 mg/Kg i.v. bolus, not incubated): 34±3.7 mmHg

Molecule: 5,10,15,20-tetrakis (2,4,6-trimethyl-3,5-disulfonatophenyl)-porphyrinato iron (III) [FeTMPS]
- hyporeactivity to exogenous norepinephrine after LPS ([3]; FeTMPS 15 mg/kg given at 1 h post LPS 4 mg/Kg): prevented; also recorded: reversed
- reactivity to norepinephrine in saline treated rats ([3]; FeTMPS, saline treated rats, n=6): not significantly affected
- fall in MAP after LPS, therapeutic treatment ([4]; FeTMPS 10 mg/Kg/h at 1 h post LPS 4 mg/Kg i.v. (FIG. 7)): prevents
- fall in MAP after LPS, prophylactic treatment ([4]; FeTMPS 10 mg/Kg/h at 1 h post LPS 4 mg/Kg i.v. (FIG. 8)): prevents
- development of hypotension after LPS ([4]; FeTMPS 15 mg/Kg i.v. bolus injection 1 hour after LPS): prevented
